# Laboratory results taken from article PMC4669759 (Cell Death & Disease, 2015).
# Key:
# H929 cells [1] = assay: Cytochrome c release in H929 cells; type: cell-based, human; conditions: intact H929 cells, within 4 h
# Description: (§1) Figure 4 Indole-2-carboxylic acids induce the hallmarks of apoptosis in MCL-1-dependent cancer cell line H929. (a) Digitonin-permeabilized H929 cells were treated with 10 μM BH3 peptides for 4 h, and intact H929 cells were incubated with increasing concentrations (0.1–10 μM) of A-1208746 for 4 h before assessing the levels of cytochrome c released into the cytosol. (b) H929 and RS4;11 cells were incubated with increasing concentrations of MCL-1 inhibitors or the BCL-2-selective inhibitor ABT-199 (venetoclax) for 48 h before determining cell viability. Cell killing IC50s are plotted with each value representing the mean of three separate experiments. […]
# (§2) H929 cells were cultured in RPMI 1640 (Invitrogen Corp., Grand Island, NY, USA) supplemented with 10% fetal bovine serum (Invitrogen), 1% sodium pyruvate, 25 mM HEPES, 4.5 g/l glucose, and 1% penicillin/streptomycin (Sigma) and maintained in a humidified chamber at 37 °C containing 5% CO2. […] Following treatment, the hallmarks of apoptosis (activation of caspase-3/-7, mitochondrial membrane depolarization, and phosphatidylserine externalization) were measured using the IntelliCyt (Albuquerque, NM, USA) MultiCyt 4-Plex Apoptosis Screening Kit according to the manufacturer's instructions and read by flow cytometry using a HTFC screening system (IntelliCyt). […] Data were expressed as the percentage of singlet cells. […]
# H929 cells [2] = assay: Cell viability, H929 cells; type: cell-based, human; conditions: H929, 48 h
# Description: as §1, with “experiments. Error bars represent the S.E.M. (c) H929 cells were incubated with increasing concentrations of MCL-1 inhibitors in the presence or absence of the pan-caspase inhibitor QVD (100 μM) for 4 h before assessing caspase-3/-7 activation, mitochondrial membrane polarization, and the exposure of phosphatidylserine.” for “experiments.”
# (§3) Adherent cell lines were seeded at 50 000 cells per well in 96-well plates and treated for 48 h with compounds diluted in half-log steps starting at 30 μM and ending at 0.001 μM. […] Effects on proliferation and viability were determined using CellTiter-Glo reagent from Promega (Madison, WI, USA) according to the manufacturer's instructions. IC50 values were determined by non-linear regression analysis of the concentration response data.
# RS4;11 cell line = assay: Cell viability, RS4;11 cells; type: cell-based; conditions: RS4;11, 48 h
# Description: as §1, with “experiments. Error bars represent the S.E.M. (c) H929 cells were incubated with increasing concentrations of MCL-1 inhibitors in the presence or absence of the pan-caspase inhibitor QVD (100 μM) for 4 h before assessing caspase-3/-7 activation, mitochondrial membrane polarization, and the exposure of phosphatidylserine.” for “experiments.”
# as §3
# H929 cells [3] = assay: Hallmarks of apoptosis in H929 cells (caspase-3/-7, mitochondrial membrane depolarization, phosphatidylserine); type: cell-based, human; conditions: H929, 4 h
# Description: as §1, §2
# Bak-/- Bax-/- MEFs = assay: Cell viability, Bak-/- Bax-/- murine embryonic fibroblasts; type: cell-based; conditions: 48 h
# Description: Supplementary Figure 4. […] Murine embryonic fibroblasts (MEFs) lacking Bak and Bax were treated with increasing concentrations of A-1155905, A-1208746, A-1210477, staurosporine or bortezomib for 48 h before assessing cell viability. Data represent the mean of triplicate experiments and error bars indicate the standard error of the mean.
# [4] = tested on: MCL-1(3B)–BIMS(2A)ΔC complexes; assay: Live cell redistribution assay, eGFP-MCL-1(3B) and mCherry-BIMS(2A)ΔC, T-REx-293 cells; type: cell-based; conditions: T-REx-293 cells expressing MCL-1(3B)
# Excerpt: To further rule out potential artifacts associated with lysate detergents that can influence interactions between BCL-2 family proteins,[47] we employed a recently described real-time imaging method to assess the effects on BCL-2 family complexes in live cells.[48] Briefly, interacting pairs of BCL-2 family proteins are expressed as fluorescent fusion proteins at stoichiometric levels from a bicistronic expression module integrated into a single site of the genome in T-REx-293 cells. Under basal conditions, both proteins localize primarily to the mitochondria, where the anti-apoptotic proteins (enhanced green fluorescent protein (eGFP)-BCL-2, eGFP-BCL-XL, or eGFP-MCL-1(3B)) sequester their pro-apoptotic counterparts (mCherry-BAD or mCherry-BIMS(2A)ΔC, the latter being a specific binder of MCL-1[48], [49]). Disruption of these complexes can be tracked by measuring the amount of mCherry-labeled BH3-only protein localized specifically to the mitochondria. […]
# (§4) Figure 3 A-1210477 inhibits MCL-1-BIM complexes in live cells. […] The decrease in amount of mCherry-BH3 protein localized to the mitochondria was quantified as a function of time as described in the Materials and Methods, normalized to DMSO control, and fitted to a single exponential decay. Each data point represents the mean change in intensity calculated from 10 fields of view, with error bars indicating the S.E.M. (b) T-REx-293 cells stably expressing eGFP-MCL-1(3B) and mCherry-BIMS(2A)ΔC were treated with 50 μM ABT-737 or increasing concentrations (1–25 μM) A-1210477 for 100 min. The decrease in amount of mCherry-BIMS(2A)ΔC localized to the mitochondria was quantified as in panel (a). (c) Representative fluorescence microscopic images of T-REx-293 cells stably expressing eGFP-BCL-2 family and interacting mCherry-BH3-only proteins before and after 300 min of treatment with 10 μM A-1210477 or (d) ABT-737. […]
# Experiments were carried out as detailed previously.[48] […] Therefore, the entire cell was identified with a single intensity threshold applied to the eGFP fluorescence, excluding areas identified as mitochondria. […]
# BCL-2–BAD complexes = biological target: T1, BCL-2–BAD complexes (Homo sapiens, UniProt P10415); assay: Live cell redistribution assay, eGFP-BCL-2 and mCherry-BAD, T-REx-293 cells; type: cell-based; conditions: 10 μM, 300 min
# T1 construct: expressed in transfected cells; host or cells: T-REx-293, bicistronic expression module integrated at a single genomic site
# T1 sequence (P10415 whole entry, one chain of several): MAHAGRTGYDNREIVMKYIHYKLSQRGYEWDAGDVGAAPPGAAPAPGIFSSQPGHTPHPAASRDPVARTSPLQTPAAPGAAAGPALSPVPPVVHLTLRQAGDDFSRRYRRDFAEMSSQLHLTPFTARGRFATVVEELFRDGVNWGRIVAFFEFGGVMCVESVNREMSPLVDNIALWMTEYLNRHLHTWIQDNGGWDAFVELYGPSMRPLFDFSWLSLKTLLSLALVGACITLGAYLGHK
# Excerpt: (§5) To further rule out potential artifacts associated with lysate detergents that can influence interactions between BCL-2 family proteins,[47] we employed a recently described real-time imaging method to assess the effects on BCL-2 family complexes in live cells.[48] Briefly, interacting pairs of BCL-2 family proteins are expressed as fluorescent fusion proteins at stoichiometric levels from a bicistronic expression module integrated into a single site of the genome in T-REx-293 cells. […]
# as §4
# BCL-XL–BAD complexes = biological target: T2, BCL-XL–BAD complexes (Homo sapiens, UniProt Q07817); assay: Live cell redistribution assay, eGFP-BCL-XL and mCherry-BAD, T-REx-293 cells; type: cell-based; conditions: 10 μM, 300 min
# T2 construct: expressed in transfected cells; host or cells: T-REx-293, bicistronic expression module integrated at a single genomic site
# T2 sequence (Q07817 whole entry, one chain of several): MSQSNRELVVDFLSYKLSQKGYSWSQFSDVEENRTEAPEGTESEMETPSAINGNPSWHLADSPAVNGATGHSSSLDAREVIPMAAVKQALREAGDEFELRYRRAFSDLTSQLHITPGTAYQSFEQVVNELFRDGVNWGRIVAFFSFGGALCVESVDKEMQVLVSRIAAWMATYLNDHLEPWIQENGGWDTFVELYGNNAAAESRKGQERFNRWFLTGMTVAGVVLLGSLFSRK
# Excerpt: as §5, §4
# BxPC-3 cells = assay: Navitoclax / A-1210477 combination cell viability, BxPC-3 cells; type: cell-based; conditions: BxPC-3, up to 3–5 μM, 48 h
# Description: (§6) Figure 6 A-1210477 synergizes with navitoclax to kill hematological and solid tumor cell lines. BxPC-3, EJ-1, H23, and OPM-2 cells were treated with increasing concentrations of navitoclax in the presence or absence of increasing concentrations of A-1210477 for 48 h before assessing cell viability. All data points represent the means of triplicate experiments, with error bars indicating the S.E.M. TEXT PRINTED IN THE PICTURE: A-1210477 + navitoclax: Bliss sum (BxPC-3): 716; Bliss sum (EJ-1): 464; Bliss sum (H23): 76; Bliss sum (OPM-2): 946 DOUBTS OF THE COPYIST ABOUT THIS PICTURE: The Bliss sums apply to the combination of A-1210477 and navitoclax. The picture prints the two names separately (legend heading and axis title), not as one joined label.
# (§7) Adherent cell lines were seeded at 50 000 cells per well in 96-well plates and treated for 48 h with compounds diluted in half-log steps starting at 30 μM and ending at 0.001 μM. Multiple myeloma cell lines were seeded at 15 000–20 000 cells per well and treated similarly. Effects on proliferation and viability were determined using CellTiter-Glo reagent from Promega (Madison, WI, USA) according to the manufacturer's instructions. IC50 values were determined by non-linear regression analysis of the concentration response data.
# EJ-1 cells = assay: Navitoclax / A-1210477 combination cell viability, EJ-1 cells; type: cell-based; conditions: EJ-1, up to 3–5 μM, 48 h
# Description: as §6, §7
# H23 cells = assay: Navitoclax / A-1210477 combination cell viability, H23 cells; type: cell-based, human; conditions: H23, up to 3–5 μM, 48 h
# Description: as §6, §7
# OPM-2 cells = assay: Navitoclax / A-1210477 combination cell viability, OPM-2 cells; type: cell-based; conditions: OPM-2, up to 3–5 μM, 48 h
# Description: as §6, §7
compound,measurement,setting,value
Cc1nn(C)c(COc2ccc(N3CCN(S(C)(=O)=O)CC3)cc2)c1-c1cccc2c(CCCOc3cccc4ccccc34)c(C(=O)O)n(CCN3CCOCC3)c12 [A-1208746],lowest concentration at which cytochrome c was observed in cytosolic fractions,H929 cells [1],3 µM
same,cell killing IC50,H929 cells [2],low-μM range
same,effect on cell viability,RS4;11 cell line,no effect
same,"induction of hallmarks of apoptosis (mitochondrial membrane depolarization, caspase-3/-7 activation, phosphatidylserine externalization)",H929 cells [3],induced the hallmarks of apoptosis
same,killing of Bak-/- Bax-/- MEFs,Bak-/- Bax-/- MEFs,do not Kill
"CN(C)CC[C@H](CSc1ccccc1)Nc1ccc(S(=O)(=O)NC(=O)c2ccc(N3CCN(Cc4ccccc4-c4ccc(Cl)cc4)CC3)cc2)cc1[N+](=O)[O-] [ABT-737, reference compound]",redistribution of mCherry-BIMS(2A)ΔC from mitochondria,[4],no effect
same,redistribution of mCherry-BAD associated with BCL-2,BCL-2–BAD complexes,induced the redistribution of mCherry-BAD
same,redistribution of mCherry-BAD associated with BCL-XL,BCL-XL–BAD complexes,induced the redistribution of mCherry-BAD
"CC1(C)CCC(c2ccc(Cl)cc2)=C(CN2CCN(c3ccc(C(=O)NS(=O)(=O)c4ccc(N[C@H](CCN5CCOCC5)CSc5ccccc5)c(S(=O)(=O)C(F)(F)F)c4)cc3)CC2)C1 [navitoclax, reference compound]",single agent effect on cell viability,BxPC-3 cells,little or no effect
same,single agent effect on cell viability,EJ-1 cells,little or no effect
same,single agent effect on cell viability,H23 cells,little or no effect
same,single agent effect on cell viability,OPM-2 cells,little or no effect
